According to US4174404A, “Deoxynarasin antibiotics” (Eli Lilly and Company, priority 1978, dated 1979):
Converted amounts (≈) assume the structure as drawn. Structures can show the parent of a compound that is named as a salt.

Experiments:
mice = test: acute toxicity, intraperitoneal, mice; assay type: in vivo; settings: intraperitoneally to mice
[1] = tested on: isolated guinea-pig atria; test: isolated guinea-pig atria contractility; assay type: cell-based; settings: Cavia porcellus; 10^-5 molar; percentage of maximal contractile tension elicited by norepinephrine challenge; n=4; read-out: mean (± standard error) increase in contractile tension
Text: 20-Deoxynarasin and its salts are also potential cardiotonic agents. In tests using isolated guinea-pig atria, for example, 20-deoxynarasin increased cardiac contractility. Response to this test is expressed as a percentage of the maximal contractile tension that could be elicited by a challenge dose of norepinephrine (10^-4)M). 20-Deoxynarasin (Na salt), at a 10^-5 molar concentration, produced a mean (± standard error) increase in contractile tension of 43.8±1.4 (n=4) percent. For a more detailed description of this test, see U.S. Pat. No. 3,985,893.

Eimeria tenella [2] = test: in vitro anticoccidial activity; assay type: cell-based
Text: Anticoccidial activity is an important property of the deoxynarasin antibiotics of this invention.

[3] = target: cation transport ATPase in liver mitochondria; test: in vitro ATPase inhibition; assay type: biochemical
Text: In yet another aspect, 20-deoxynarasin and its salts are active as an inhibitor of the enzyme ATPase. ATPase, an alkali-metal-sensitive enzyme found in cell membranes, is involved in the energy necessary for active transport. "Active transport" refers to the energy-requiring series of operations whereby intracellular and extracellular fluids maintain their compositions. Inhibitors of ATPase reduce the energy required for active transport. In vitro tests have shown that 20-deoxynarasin (Na salt) inhibits cation transport ATPase in liver mitochondria at a half effective concentration of 0.065 mcg/ml.

rumen flora = test: in vitro rumen volatile-fatty-acid (VFA) test; design: species or system ruminants
Text: As discussed, efficiency of carbohydrate utilization in ruminants is increased by treatments which stimulate the animal's rumen flora to produce propionate compounds rather than acetate or butyrate compounds. The efficiency of feed use can be monitored by observing the production and concentration of propionate compounds in rumen fluid, using methods as described in U.S. Pat. No. 4,038,384.
Results of in vitro tests with 20-deoxynarasin (Na salt) and 20-deoxy-epi-17-narasin (free acid), showing the ratio of volatile-fatty-acid (VFA) concentrations in treated flasks to concentrations in control flasks, are shown in Table VIII.

[4] = tested on: Clostridium perfringens 81; test: microbe, parasite or virus in culture; assay type: cell-based; settings: Clostridium perfringens, 81, 24 h
[5] = tested on: Clostridium septicum 1128; test: agar-dilution MIC, anaerobic bacteria; assay type: cell-based; settings: 24-hour incubation
Method: (§1) In one aspect, the deoxynarasin antibiotics inhibit the growth of anaerobic bacteria. The minimal inhibitory concentrations (MIC) at which 20-deoxy-epi-17-narasin (free acid) inhibits various anaerobic bacteria, determined by standard agar-dilution assay, are summarized in Table V. End points were read after 24-hour incubation period.

[6] = tested on: Propionibacterium acnes 79; test: agar-dilution MIC, anaerobic bacteria; assay type: cell-based; settings: Cutibacterium acnes, 24-hour incubation
Method: as §1

[7] = tested on: Peptostreptococcus intermedius 1264; test: agar-dilution MIC, anaerobic bacteria; assay type: cell-based; settings: 24-hour incubation
Method: as §1

[8] = tested on: Eubacterium aerofaciens 1235; test: agar-dilution MIC, anaerobic bacteria; assay type: cell-based; settings: Collinsella aerofaciens, 24-hour incubation
Method: as §1

[9] = tested on: Peptococcus asaccharolyticus 1302; test: agar-dilution MIC, anaerobic bacteria; assay type: cell-based; settings: Peptoniphilus asaccharolyticus, 24-hour incubation
Method: as §1

[10] = tested on: Actinomyces israelii W855; test: agar-dilution MIC, anaerobic bacteria; assay type: cell-based; settings: 24-hour incubation
Method: as §1

[11] = tested on: Peptostreptococcus anaerobius 1428; test: agar-dilution MIC, anaerobic bacteria; assay type: cell-based; settings: 24-hour incubation
Method: as §1

Peptococcus prevoti 1281 = test: agar-dilution MIC, anaerobic bacteria; assay type: cell-based; settings: 24-hour incubation
Method: as §1

Bacteroides fragilis 111 = test: agar-dilution MIC, anaerobic bacteria; assay type: cell-based; settings: 24-hour incubation
Method: as §1

[12] = tested on: Staphylococcus aureus 3074 (Penicillin G Resistant); test: disc-diffusion method, zone of inhibition; assay type: cell-based
Text: (§2) The deoxynarasin antibiotics of this invention are antibacterial agents. For example, the relative microbiological activity of 20-deoxy-epi-17-narasin (free acid) is described in Table IV. The conventional disc-diffusion method was used.

[13] = tested on: Staphlococcus aureus 3055; test: disc-diffusion method, zone of inhibition; assay type: cell-based
Text: as §2

[14] = tested on: Streptococcus pyogenes (Group A); test: disc-diffusion method, zone of inhibition; assay type: cell-based
Text: as §2

Diplococcus pneumoniae = test: disc-diffusion method, zone of inhibition; assay type: cell-based; settings: Streptococcus pneumoniae
Text: as §2

[15] = tested on: Staphylococcus aureus 3130 (Methicillin Resistant); test: disc-diffusion method, zone of inhibition; assay type: cell-based
Text: as §2

[16] = tested on: Streptococcus sp. (Group D); test: disc-diffusion method, zone of inhibition; assay type: cell-based
Text: as §2

M. synoviae = test: in vitro broth-dilution MIC, Mycoplasma; assay type: cell-based; settings: Mycoplasmopsis synoviae
Text: (§3) Activity against Mycoplasma is another useful aspect of the antimicrobial activity of the deoxynarasin antibiotics. Mycoplasma species, also known as pleuropneumonia-like (PPLO) organisms, are pathogenic to man and various animals. Agents active against PPLO organisms are especially needed by the poultry industry. The minimal inhibitory concentrations (MIC) of 20-deoxy-epi-17-narasin (free acid) against illustrative Mycoplasma species, as determined by in vitro broth-dilution studies, are summarized in Table VI.

M. gallisepticum = test: in vitro broth-dilution MIC, Mycoplasma; assay type: cell-based; settings: Mycoplasmoides gallisepticum
Text: as §3

M. hyorhinis = test: in vitro broth-dilution MIC, Mycoplasma; assay type: cell-based; settings: Mesomycoplasma hyorhinis
Text: as §3

solubility = assay type: physicochemical; settings: for solubility in nonpolar organic solvents: nonpolar organic solvents such as hexane; for solubility in organic solvents: organic solvents (methanol, ethanol, dimethylformamide, dimethyl sulfoxide, ethyl acetate, chloroform, acetone, benzene)
Text: The deoxynarasin antibiotic complex comprises 20-deoxynarasin and 20-deoxy-epi-17-narasin which are obtained from the fermentation as a mixture. 20-Deoxynarasin and 20-deoxy-epi-17-narasin are separated from the deoxynarasin complex and isolated as individual compounds as hereinafter described. The deoxynarasin complex also contains minor factors which are removed by the procedures described. The deoxynarasin antibiotic complex is soluble in most organic solvents, but is insoluble in water.
(§4) For example, 20-deoxynarasin acid (435.1 mg) was dissolved in methanol (40 ml) and allowed to stand at room temperature for four hours. The solution was then evaporated to dryness under vacuum; the residue was redissolved in dioxane and lyophilized to give 417.8 mg of 20-deoxy-epi-17-narasin acid.

herpesvirus = test: in vitro plaque suppression test; assay type: cell-based
Text: (§5) The deoxynarasin antibiotics are also antiviral agents.

vacinnia virus = test: in vitro plaque suppression test; assay type: cell-based
Text: as §5

rhinovirus type 3 = test: in vitro plaque suppression test; assay type: cell-based; settings: rhinovirus type 3, in vitro
Text: as §5

influenza A virus = test: in vitro plaque suppression test; assay type: cell-based
Text: as §5

Eimeria tenella [17] = test: feeding experiment in young chickens challenged with Eimeria tenella; assay type: in vivo; settings: 100 ppm in the diet, chicks challenged with Eimeria tenella, Na salt
Text: A feeding experiment in young chickens confirms that the deoxynarasin antibiotics have anticoccidial activity in vivo.

stability in alcohols = assay type: physicochemical; settings: converts to 20-deoxy-epi-17-narasin free acid (methanol, room temperature, four hours)
Method: as §4

## CCC(C(=O)O)C1OC(C(C)C(O)C(C)C(=O)C(CC)C2OC3(C=CCC4(CCC(C)(C5CCC(O)(CC)C(C)O5)O4)O3)C(C)CC2C)C(C)CC1C (stereo not drawn) [20-deoxynarasin (Na salt)]
mice
  acute toxicity LD50: 5 mg/kg
[1]
  activation at 10 µM: 43.8 ± 1.4%
Eimeria tenella [2]; Eimeria tenella, read-out: level at which active against Eimeria tenella (as low as)
  minimal effective concentration: 0.2 µg/mL
[3]
  half effective concentration, inhibition of cation transport ATPase: 0.065 µg/mL

## CCC(C(=O)O)C1OC(C(C)C(O)C(C)C(=O)C(CC)C2OC3(C=CCC4(CCC(C)(C5CCC(O)(CC)C(C)O5)O4)O3)C(C)CC2C)C(C)CC1C (stereo not drawn) [20-deoxy-epi-17-narasin]
mice
  acute toxicity LD50: 201 mg/kg
Rumen flora; dose 2 mcg/ml
  Ratio of Treated to Control, Molar % acetate: 0.9581
  Ratio of Treated to Control, Molar % butyrate: 0.9414
  Ratio of Treated to Control, Molar % propionate: 1.0858
  Ratio of Treated to Control, Total VFA: 1.0717
Rumen flora; dose 5 mcg/ml
  Ratio of Treated to Control, Molar % acetate: 0.9237
  Ratio of Treated to Control, Molar % butyrate: 0.8201
  Ratio of Treated to Control, Molar % propionate: 1.1836
  Ratio of Treated to Control, Total VFA: 1.0487
Rumen flora; dose 10 mcg/ml
  Ratio of Treated to Control, Molar % acetate: 0.9093
  Ratio of Treated to Control, Molar % butyrate: 0.6560
  Ratio of Treated to Control, Molar % propionate: 1.2665
  Ratio of Treated to Control, Total VFA: 1.0325
[4]
  MIC: 16 µg/mL (≈ 21.4 µM)
[5]
  MIC: 16 µg/mL (≈ 21.4 µM)
[6]
  MIC: 2 µg/mL (≈ 2.67 µM)
[7]
  MIC: 4 µg/mL (≈ 5.34 µM)
[8]
  MIC: 16 µg/mL (≈ 21.4 µM)
[9]
  MIC: 8 µg/mL (≈ 10.7 µM)
[10]
  MIC: 8 µg/mL (≈ 10.7 µM)
[11]
  MIC: 4 µg/mL (≈ 5.34 µM)
Peptococcus prevoti 1281
  MIC: 4 µg/mL (≈ 5.34 µM)
Bacteroides fragilis 111
  MIC: > 128 µg/mL
[12]; 30 mcg/disc
  zone of inhibition at 30 µg/disc: 15.4 mm
[12]; 300 mcg/disc
  zone of inhibition at 300 µg/disc: 19.5 mm
[13]; 30 mcg/disc
  zone of inhibition at 30 µg/disc: 13.8 mm
[13]; 300 mcg/disc
  zone of inhibition at 300 µg/disc: 16.9 mm
[14]; 30 mcg/disc
  zone of inhibition at 30 µg/disc: 10 mm
[14]; 300 mcg/disc
  zone of inhibition at 300 µg/disc: 12 mm
Diplococcus pneumoniae; 30 mcg/disc
  zone of inhibition at 30 µg/disc: 13 mm
Diplococcus pneumoniae; 300 mcg/disc
  zone of inhibition at 300 µg/disc: 16 mm
[15]; 30 mcg/disc
  zone of inhibition at 30 µg/disc: 17.2 mm
[15]; 300 mcg/disc
  zone of inhibition at 300 µg/disc: 19 mm
[16]; 30 mcg/disc
  zone of inhibition at 30 µg/disc: 14.6 mm
[16]; 300 mcg/disc
  zone of inhibition at 300 µg/disc: 17 mm
M. synoviae
  MIC: 50 µg/mL (≈ 66.8 µM)
M. gallisepticum
  MIC: 25 µg/mL (≈ 33.4 µM)
M. hyorhinis
  MIC: 50 µg/mL (≈ 66.8 µM)
solubility
  solubility in nonpolar organic solvents: only slightly soluble
  solubility in organic solvents: soluble
  solubility in water: insoluble
herpesvirus
  antiviral activity (plaque suppression): active
Vacinnia virus
  antiviral activity (plaque suppression): active
Rhinovirus type 3
  antiviral activity (plaque suppression): active
Influenza A virus
  antiviral activity (plaque suppression): active
Eimeria tenella [2]
  level at which active against Eimeria tenella (as low as): 0.2 ppm

## CCC(C(=O)O)C1OC(C(C)C(O)C(C)C(=O)C(CC)C2OC3(C=CCC4(CCC(C)(C5CCC(O)(CC)C(C)O5)O4)O3)C(C)CC2C)C(C)CC1C (stereo not drawn) [20-deoxynarasin, 20-Deoxynarasin]
Eimeria tenella [17]
  % Mortality: 0%
  Weight Gain: 185 g
Eimeria tenella [17]; maximum possible score = 4.00
  Lesion Score: 0.13
Rumen flora; dose 0.1 mcg/ml
  Ratio of Treated to Control, Molar % acetate: 0.9504
  Ratio of Treated to Control, Molar % butyrate: 0.6870
  Ratio of Treated to Control, Molar % propionate: 1.2148
  Ratio of Treated to Control, Total VFA: 1.1892
Rumen flora; dose 0.3 mcg/ml
  Ratio of Treated to Control, Molar % acetate: 0.9084
  Ratio of Treated to Control, Molar % butyrate: 0.4582
  Ratio of Treated to Control, Molar % propionate: 1.3799
  Ratio of Treated to Control, Total VFA: 1.1829
Rumen flora; dose 1 mcg/ml
  Ratio of Treated to Control, Molar % acetate: 0.8727
  Ratio of Treated to Control, Molar % butyrate: 0.3942
  Ratio of Treated to Control, Molar % propionate: 1.4597
  Ratio of Treated to Control, Total VFA: 1.2096
Stability in alcohols
  stability in alcohols: unstable
solubility
  solubility in nonpolar organic solvents: only slightly soluble
  solubility in organic solvents: soluble
  solubility in water: insoluble
